Reference: patent US20080004272A1, “Compositions and methods for modulating gated ion channels” (PainCeptor Pharma Corporation, priority 2006, published 2008)
Read-outs that look alike come from different tables or passages of the source.

Columns and labels:
[1] = tested on: carrageenan-induced thermal hyperalgesia; test: Carrageenan model, thermal hyperalgesia (Hargreaves' assay); type: in vivo; details: rat, 10 mg/kg s.c. 30 min prior to carrageenan, tested 2, 3 and 4 h post
Method: Acute inflammatory hyperalgesia is induced in rats by unilateral injection of […] of a 3% solution of 1-carrageenan into the plantar surface of the left hind paw 2-4 h prior to testing. Thermal nociceptive thresholds are determined according to the method described elsewhere (Hargreaves et al., 1988). Briefly, through the glass surface, a radiant heat source (8 V, 50 W projector bulb) is focused onto the plantar surface of the hind paw. The rat's paw-withdrawal latency to this stimulus is recorded to the nearest 0.1 s. Each latency score is an average of three trials, which are separated by at least 5 min. In all rats, both the injured and uninjured hind paws are similarly tested, allowing direct comparisons between inflamed and non-inflamed paws.
FIG. 5 illustrates the effect of Compound 203 (10 mg/kg s.c.) on the thermal hyperalgesia (observed in the Hargreaves' assay) resulting from an acute paw inflammation caused by the intraplantar injection of 150 μl of a 3% solution of λ-carrageenan. Compound 203 was given 30 min prior to carrageenan injection and thermal hyperalgesia was tested 2, 3, and 4 h post carrageenan injection.

ASIC1a = biological target: T1, ASIC1a (Homo sapiens, UniProt P78348); test: Two-electrode voltage clamp in Xenopus laevis oocytes (Xo), acid-induced currents; type: cell-based; design: expressed in transfected cells; host or cells: Xenopus laevis oocytes (nuclear microinjection of expression vector such as pcDNA3); details: for inhibition at 50 µM: Xenopus oocytes, read-out: % inh. at 50 μM (Xo)
T1 sequence (P78348 1-528): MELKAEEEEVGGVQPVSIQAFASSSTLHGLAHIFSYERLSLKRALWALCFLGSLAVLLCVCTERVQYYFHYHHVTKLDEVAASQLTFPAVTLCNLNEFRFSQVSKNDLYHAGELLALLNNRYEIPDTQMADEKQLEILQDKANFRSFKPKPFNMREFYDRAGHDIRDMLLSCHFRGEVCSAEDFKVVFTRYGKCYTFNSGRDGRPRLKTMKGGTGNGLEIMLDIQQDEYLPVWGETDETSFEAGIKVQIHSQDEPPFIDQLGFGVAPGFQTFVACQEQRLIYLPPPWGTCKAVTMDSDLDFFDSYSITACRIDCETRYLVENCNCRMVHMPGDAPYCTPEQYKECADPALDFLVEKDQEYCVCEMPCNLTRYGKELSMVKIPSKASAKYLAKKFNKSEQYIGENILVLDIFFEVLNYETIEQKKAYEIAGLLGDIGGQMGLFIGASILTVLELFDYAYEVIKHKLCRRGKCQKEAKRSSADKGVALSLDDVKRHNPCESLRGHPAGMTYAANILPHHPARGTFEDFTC
Method in brief: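 Defolliculated oocytes were nuclear-injected with channel cDNA and expressed for 2–4 days at 19 °C. Under two-electrode voltage clamp at room temperature, oocytes were superfused with pH 7.4 Ringer, and currents were evoked by switching to acidic MES Ringer (pH<7). Compound was present in both control and acidic solutions.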

Row | Compound | Effect on thermal hyperalgesia [1] | IC50 (ASIC1a) | inhibition at 50 µM (ASIC1a) | IC50 (ASIC1a; Xenopus laevis oocytes, three point dose-response, read-out: IC50, half maximal inhibition of the acid-evoked response in hASIC1a)
1 | CN1CCc2c(-c3ccccc3)cc(C#N)c(N)c2C1 [Compound 203, 8-Amino-2-methyl-5-phenyl-1,2,3,4-tetrahydro-isoquinoline-7-carbonitrile] | reduced the thermal hyperalgesia to level not significant to the control paw | 6.2 µM | > 70% | –
2 | COc1ccc(F)cc1-c1cc(C#N)c(N)c2c1CCN(C)C2 [Compound 206, 8-Amino-5-(5-fluoro-2-methoxy-phenyl)-2-methyl-1,2,3,4-tetrahydro-isoquinoline-7-carbonitrile] | – | – | 50 to 70% | 34 µM
